The target in assay [1] is T1, cathepsin B (Homo sapiens, UniProt P07858). As to the kind of experiment: Chemiluminescence kinetic profile of probes with or without cathepsin B in activity buffer. The format is biochemical. To be noted: probe 1 μM, activity buffer pH 7.4, 10% DMSO, 2.5 units/mL cathepsin B, room temperature. As for the experimental part:
FIGS. 1A-1C show the chemiluminescence kinetic profiles of probes 1, 2, 3 and 4 [1 μM] in activity buffer (pH 7.4, 10% DMSO) in the presence of 2.5 units/mL cathepsin B at room temperature (1A; the inset focuses on the kinetic profile of probe 1); the total light emitted from each probe (1B); and the maximal signal yielded by each probe (1C).
(§1) The activity buffer contained: phosphate buffer 0.1M, 55 mM NaCl, 1 mM EDTA, 5 mM glutathione. All spectroscopic measurements were conducted in triplicates. The blank measurements for limit of detection calculation were repeated ten times. Limit of detection (LOD) was calculated as such: LOD=Meanblank+3×SD wherein SD—standard deviation.
Next, chemiluminescence emission of the probes, as a function of time was measured, with or without the addition of cathepsin B. The kinetic profiles of the chemiluminescence signals and their relative total-photon emissions are shown in FIGS. 1A and 1B, respectively. […] From then on, a pattern of increased chemiluminescent signal is seen, correlating to the addendum change and the improved probe solubility in aqueous media. Evaluating the probes for forthcoming cell imaging required us to also assess the maximal signal yielded by each probe, as it will culminate in higher sensitivity and resolution (FIG. 1C). The maximal signal of the different probes pales in comparison to that of probe 4, making it the leading choice for further investigation. No light emission was observed from the probes in the absence of cathepsin B.

In another assay the test system is Raw 264.7 cells. Kind of assay: Chemiluminescence microscopy imaging of cathepsin B activity in Raw 264.7 cells. The format is cell-based, murine. To be noted: probe 5 μM, LV200 microscope, 20 min exposure. The protocol:
(§2) Images were obtained following 30 min incubation with cell culture medium containing either probe 3 or probe 4 (5 μM), and were taken using the LV200 Olympus microscope using a 60× objective and 20 min exposure time. Chemiluminescence microscopy image and transmitted light image of […] cells incubated with probe 3 (a and b, respectively); Chemiluminescence microscopy image and transmitted light image of […] cells incubated with probe 4 (c and d, respectively); Chemiluminescence microscopy image and transmitted light image of CT26 cells incubated with probe 3 (e and f, respectively); Chemiluminescence microscopy image and transmitted light image of CT26 cells incubated with probe 4 (g and h, respectively); Chemiluminescence microscopy image and transmitted light image of 3T3 cells incubated with probe 3 (i and j, respectively); Chemiluminescence microscopy image and transmitted light image of 3T3 cells incubated with probe 4 (k and l, respectively).
(§3) Chemiluminescence images were acquired using Olympus LV200 inverted microscope fitted with an EMCCD camera (Hamamatsu C9100-13). […] For visualization of chemiluminescence emission, images were recorded with 20 minutes exposure times. […]

The subject of a further assay is CT26 tumor cells. As to the kind of experiment: Chemiluminescence microscopy imaging of cathepsin B activity in CT26 tumor cells. To be noted: probe 5 μM, LV200 microscope, 20 min exposure. The format is cell-based. As for the experimental part:
as §2, §3

Another assay concerns 3T3 normal cells. As to the kind of experiment: Chemiluminescence microscopy imaging of cathepsin B activity in 3T3 normal cells. The format is cell-based, mouse. Conditions: 3T3 cells, probe 5 μM, LV200 microscope, 20 min exposure. The protocol: as §2, §3
Assay [2] addresses T1, cathepsin B. Kind of assay: HPLC analysis of the enzymatic degradation of the probe by cathepsin B. To be noted: probe 10 μM, activity buffer pH 7.4, 10% DMSO, 2.5 U/mL cathepsin B. It counts as biochemical. The text has this:
To confirm the connection between the enzymatic degradation and chemiluminescent signal of the probes, HPLC was used to follow the enzymatic degradation of probe 4.

Assay [3] addresses T1, cathepsin B. Kind of assay: Sensitivity (limit of detection) of probes to detect cathepsin B, signal/noise vs enzyme concentration. It counts as biochemical. To be noted: for limit of detection (LOD) of cathepsin B: LOD = mean blank + 3×SD. As for the experimental part: as §1
The sensitivity of probe 4 to detect cathepsin B was measured and compared to that of a classic fluorescent probe (Z-Val-Cit-PABA-7HC) based on 7-hydroxy-coumarin To directly view the comparison between the two detection methods, signal/noise ratio using different cathepsin B concentrations was plotted against enzyme concentration using logarithmic scales (FIG. 4).

These results are taken from patent publication US12173350B2, “Chemiluminescent probes for imaging/detection of proteases” (RAMOT AT TEL-AVIV UNIVERSITY LTD., priority 2017, dated 2024).

“Also recorded” adds a separate entry of the source.

As to `COC1(c2cccc(OCc3ccc(NC(=O)C(CCCNC(N)=O)NC(=O)C(NC(=O)OCc4ccccc4)C(C)C)cc3)c2Cl)OOC12C1CC3CC(C1)CC2C3` (centres unmarked) [Probe 1], the “chemiluminescence emission (signal) upon addition of cathepsin B” value (“chemiluminescence emission” below) on cathepsin B [1] was “extremely weak emission”.
As for `COC(=O)/C=C/c1ccc(C2(OC)OOC23C2CC4CC(C2)CC3C4)c(Cl)c1OCc1ccc(NC(=O)C(CCCNC(N)=O)NC(=O)C(NC(=O)OCc2ccccc2)C(C)C)cc1` (centres unmarked) [Probe 2], the “chemiluminescence emission” value on cathepsin B [1] is “distinct increase in the chemiluminescent signal”.
On to `COCCOCCOCCOCCOCCOCCOCCOCCOCCOCCOCCOCCOCCOCCOCCOCCOCCOC(=O)NC(C(=O)NC(CCCNC(N)=O)C(=O)Nc1ccc(COc2c(/C=C/C(=O)OC)ccc(C3(OC)OOC34C3CC5CC(C3)CC4C5)c2Cl)cc1)C(C)C` (centres unmarked) [Probe 3], for which, on cathepsin B [1], the “chemiluminescence emission” value is “distinct increase in the chemiluminescent signal; also recorded: highest light emission”. Further, the “chemiluminescence signal in cell imaging” value in the assay with Raw 264.7 cells, with CT26 tumor cells and with 3T3 normal cells was “no chemiluminescence signal” throughout.
With `COC(=O)/C=C/c1ccc(C2(OC)OOC23C2CC4CC(C2)CC3C4)c(Cl)c1OCc1ccc(NC(=O)C(CCCNC(N)=O)NC(=O)C(NC(=O)CCCCCN2C(=O)CC(SC[C@@H](N)C(=O)NCC(=O)N[C@H](CCCCN)C(=O)N[C@H](CCCNC(=N)N)C(=O)N[C@H](CCCCN)C(=O)O)C2=O)C(C)C)cc1` (some centres unmarked) [Probe 4], the “chemiluminescence emission” value at cathepsin B [1] is recorded as “distinct increase in the chemiluminescent signal; also recorded: highest light emission”. Moreover, the “enzymatic degradation followed by HPLC” value at cathepsin B [2] is on record as “rapid enzymatic disassembly”. For the same molecule, the “chemiluminescence signal in cell imaging” value was “imaged via the chemiluminescence signal” in the assay on Raw 264.7 cells, “imaged via the chemiluminescence signal” with CT26 tumor cells and “no chemiluminescence signal was observed” with 3T3 normal cells. Besides, the “limit of detection (LOD) of cathepsin B” value at cathepsin B [3] (chemiluminescence) is 76.29 μU/mL. The “superior sensitivity vs. fluorescent probe Z-Val-Cit-PABA-7HC” value on cathepsin B [3] (ratio of LOD values) is recorded as “more than 16,000 fold”.
As to `CC(C)C(NC(=O)OCc1ccccc1)C(=O)NC(CCCNC(N)=O)C(=O)Nc1ccc(COc2ccc3ccc(=O)oc3c2)cc1` (stereo not drawn) [Z-Val-Cit-PABA-7HC, reference compound], the “limit of detection (LOD) of cathepsin B” value on cathepsin B [3] (fluorescence) was 1.25 U/mL.
